Laboratory results reported in publication PMC11839852, “Preclinical comparison of (radio)lanthanides using mass spectrometry and nuclear imaging techniques: biodistribution of lanthanide-based tumor-targeting agents and lanthanides in ionic form” (European Journal of Nuclear Medicine and Molecular Imaging, 2024).
Where two headings read alike, the source gives them in different places. Marks after values point to notes of the source that are not given here.

Tests used:
[1] = test system: non-tumor-bearing immunocompetent FVB mice; assay: Biodistribution of lanthanide chloride salts LnCl3 (multiplexed ICP-MS); assay type: in vivo; details: for Tissue uptake: Blood / Tissue uptake: Bone / Tissue uptake: Brain / Tissue uptake: Heart / Tissue uptake: Intestines / Tissue uptake: Kidneys / Tissue uptake: Liver / Tissue uptake: Lung / Tissue uptake: Muscle / Tissue uptake: Pancreas / Tissue uptake: Salivary glands / Tissue uptake: Spleen / Tissue uptake: Stomach: non-tumor-bearing mice
[2] = test system: PC-3 PIP/flu tumor-bearing mice; details: Ln-PSMA-617; for Tissue uptake: Blood / Tissue uptake: Bone / Tissue uptake: Heart / Tissue uptake: Intestines / Tissue uptake: Kidneys / Tissue uptake: Liver / Tissue uptake: Lung / Tissue uptake: Muscle / Tissue uptake: Salivary glands / Tissue uptake: Spleen / Tissue uptake: Stomach: PC-3 PIP/flu tumor-bearing mice; for Tissue uptake: PC-3 flu tumor: PSMA-negative xenograft; for Tissue uptake: PC-3 PIP tumor: PSMA-positive xenograft; for PC-3 PIP tumor-to-background organ ratios: Tumor-to-blood / PC-3 PIP tumor-to-background organ ratios: Tumor-to-liver: estimated ratios (organ <0.5% ID/g)
[3] = 24 h p.i., estimated ratios (organ <0.5% ID/g)
[4] = 96 h p.i., estimated ratios (organ <0.5% ID/g)

[Cl][Lu]([Cl])[Cl] [[^175Lu]LuCl3]
Organ ratios: Blood-to-bone ([1]; 1 h p.i.): 0.38 ± 0.23
Organ ratios: Blood-to-liver ([1]; 1 h p.i.): 0.61 ± 0.35
Organ ratios: Liver-to-bone ([1]; 1 h p.i.): 0.64 ± 0.13
Tissue uptake: Blood ([1]; 1 h p.i.): 6.4 ± 2.7 % ID/g
Tissue uptake: Bone ([1]; 1 h p.i.): 18 ± 3 % ID/g
Tissue uptake: Brain ([1]; 1 h p.i.): <0.5 % ID/g
Tissue uptake: Heart ([1]; 1 h p.i.): 3.6 ± 1.5 % ID/g
Tissue uptake: Intestines ([1]; 1 h p.i.): 3.2 ± 1.1 % ID/g
Tissue uptake: Kidneys ([1]; 1 h p.i.): 7.3 ± 1.7 % ID/g
Tissue uptake: Liver ([1]; 1 h p.i.): 11 ± 3 % ID/g
Tissue uptake: Lung ([1]; 1 h p.i.): 5.6 ± 2.2 % ID/g
Tissue uptake: Muscle ([1]; 1 h p.i.): 1.5 ± 0.6 % ID/g
Tissue uptake: Pancreas ([1]; 1 h p.i.): 2.6 ± 0.8 % ID/g
Tissue uptake: Salivary glands ([1]; 1 h p.i.): 2.6 ± 0.9 % ID/g
Tissue uptake: Spleen ([1]; 1 h p.i.): 3.8 ± 0.5 % ID/g
Tissue uptake: Stomach ([1]; 1 h p.i.): 5.8 ± 2.1 % ID/g
Organ ratios: Liver-to-bone ([1]; 24 h p.i.): 0.49 ± 0.19
Organ ratios: Blood-to-bone [1, 3]: <0.02^*
Organ ratios: Blood-to-liver [1, 3]: <0.05^*
Tissue uptake: Blood ([1]; 24 h p.i.): <0.5 % ID/g
Tissue uptake: Bone ([1]; 24 h p.i.): 25 ± 5 % ID/g
Tissue uptake: Brain ([1]; 24 h p.i.): <0.5 % ID/g
Tissue uptake: Heart ([1]; 24 h p.i.): 0.54 ± 0.06 % ID/g
Tissue uptake: Intestines ([1]; 24 h p.i.): 0.61 ± 0.02 % ID/g
Tissue uptake: Kidneys ([1]; 24 h p.i.): 3.7 ± 1.0 % ID/g
Tissue uptake: Lung ([1]; 24 h p.i.): 0.88 ± 0.13 % ID/g
Tissue uptake: Muscle ([1]; 24 h p.i.): <0.5 % ID/g
Tissue uptake: Pancreas ([1]; 24 h p.i.): <0.5 % ID/g
Tissue uptake: Salivary glands ([1]; 24 h p.i.): 0.55 ± 0.17 % ID/g
Tissue uptake: Spleen ([1]; 24 h p.i.): 3.5 ± 0.9 % ID/g
Tissue uptake: Stomach ([1]; 24 h p.i.): 1.8 ± 0.3 % ID/g
Tissue uptake: Liver ([1]; 24 h p.i., listed as lutetium): 12 ± 3 % ID/g
Tissue uptake: Liver ([1]; 24 h p.i., listed as natLu): ~ 12 % ID/g
Organ ratios: Liver-to-bone ([1]; 96 h p.i.): 0.14 ± 0.04
Organ ratios: Blood-to-bone [1, 4]: <0.01^*
Organ ratios: Blood-to-liver [1, 4]: <0.11^*
Tissue uptake: Blood ([1]; 96 h p.i.): <0.5 % ID/g
Tissue uptake: Bone ([1]; 96 h p.i.): 35 ± 4 % ID/g
Tissue uptake: Brain ([1]; 96 h p.i.): <0.5 % ID/g
Tissue uptake: Heart ([1]; 96 h p.i.): 0.89 ± 0.25 % ID/g
Tissue uptake: Intestines ([1]; 96 h p.i.): 0.54 ± 0.14 % ID/g
Tissue uptake: Kidneys ([1]; 96 h p.i.): 2.7 ± 0.2 % ID/g
Tissue uptake: Liver ([1]; 96 h p.i.): 4.8 ± 0.9 % ID/g
Tissue uptake: Lung ([1]; 96 h p.i.): 1.1 ± 0.2 % ID/g
Tissue uptake: Muscle ([1]; 96 h p.i.): <0.5 % ID/g
Tissue uptake: Pancreas ([1]; 96 h p.i.): <0.5 % ID/g
Tissue uptake: Salivary glands ([1]; 96 h p.i.): 0.50 ± 0.06 % ID/g
Tissue uptake: Spleen ([1]; 96 h p.i.): 2.3 ± 0.2 % ID/g
Tissue uptake: Stomach ([1]; 96 h p.i.): 2.5 ± 0.2 % ID/g

O=C([O-])CN1CCN(CC(=O)[O-])CCN(CC(=O)NCC2CCC(C(=O)NC(Cc3ccc4ccccc4c3)C(=O)NCCCCC(NC(=O)NC(CCC(=O)O)C(=O)O)C(=O)O)CC2)CCN(CC(=O)[O-])CC1.[Lu+3] (stereo not shown) [[^175Lu]Lu-PSMA-617]
PC-3 PIP tumor-to-background organ ratios: Tumor-to-kidney ([2]; 1 h p.i.): 2.7 ± 0.8
Tissue uptake: Blood ([2]; 1 h p.i.): <0.5 % ID/g
Tissue uptake: Bone ([2]; 1 h p.i.): <0.5 % ID/g
Tissue uptake: Heart ([2]; 1 h p.i.): <0.5 % ID/g
Tissue uptake: Intestines ([2]; 1 h p.i.): <0.5 % ID/g
Tissue uptake: Kidneys ([2]; 1 h p.i.): 10 ± 4 % ID/g
Tissue uptake: Liver ([2]; 1 h p.i.): <0.5 % ID/g
Tissue uptake: Lung ([2]; 1 h p.i.): <0.5 % ID/g
Tissue uptake: Muscle ([2]; 1 h p.i.): <0.5 % ID/g
Tissue uptake: Salivary glands ([2]; 1 h p.i.): <0.5 % ID/g
Tissue uptake: Spleen ([2]; 1 h p.i.): 0.64 ± 0.48 % ID/g
Tissue uptake: Stomach ([2]; 1 h p.i.): 0.56 ± 0.19 % ID/g
Tissue uptake: PC-3 flu tumor ([2]; 1 h p.i.): <0.5 % ID/g
Tissue uptake: PC-3 PIP tumor ([2]; 1 h p.i.): 25 ± 3 % ID/g
PC-3 PIP tumor-to-background organ ratios: Tumor-to-blood ([2]; 1 h p.i.): >51^*
PC-3 PIP tumor-to-background organ ratios: Tumor-to-liver ([2]; 1 h p.i.): >51^*
PC-3 PIP tumor-to-background organ ratios: Tumor-to-kidney ([2]; 4 h p.i.): 18 ± 3
Tissue uptake: Blood ([2]; 4 h p.i.): <0.5 % ID/g
Tissue uptake: Bone ([2]; 4 h p.i.): <0.5 % ID/g
Tissue uptake: Heart ([2]; 4 h p.i.): <0.5 % ID/g
Tissue uptake: Intestines ([2]; 4 h p.i.): <0.5 % ID/g
Tissue uptake: Kidneys ([2]; 4 h p.i.): 1.4 ± 0.4 % ID/g
Tissue uptake: Liver ([2]; 4 h p.i.): <0.5 % ID/g
Tissue uptake: Lung ([2]; 4 h p.i.): <0.5 % ID/g
Tissue uptake: Muscle ([2]; 4 h p.i.): <0.5 % ID/g
Tissue uptake: Salivary glands ([2]; 4 h p.i.): <0.5 % ID/g
Tissue uptake: Spleen ([2]; 4 h p.i.): <0.5 % ID/g
Tissue uptake: Stomach ([2]; 4 h p.i.): <0.5 % ID/g
Tissue uptake: PC-3 flu tumor ([2]; 4 h p.i.): <0.5 % ID/g
Tissue uptake: PC-3 PIP tumor ([2]; 4 h p.i.): 23 ± 3 % ID/g
PC-3 PIP tumor-to-background organ ratios: Tumor-to-blood ([2]; 4 h p.i.): >47^*
PC-3 PIP tumor-to-background organ ratios: Tumor-to-liver ([2]; 4 h p.i.): >47^*

O=C([O-])CN1CCN(CC(=O)[O-])CCN(CC(=O)NCC2CCC(C(=O)NC(Cc3ccc4ccccc4c3)C(=O)NCCCCC(NC(=O)NC(CCC(=O)O)C(=O)O)C(=O)O)CC2)CCN(CC(=O)[O-])CC1.[Tb+3] (stereo not shown) [[^159Tb]Tb-PSMA-617]
PC-3 PIP tumor-to-background organ ratios: Tumor-to-kidney ([2]; 1 h p.i.): 3.3 ± 1.0
Tissue uptake: Blood ([2]; 1 h p.i.): <0.5 % ID/g
Tissue uptake: Bone ([2]; 1 h p.i.): <0.5 % ID/g
Tissue uptake: Heart ([2]; 1 h p.i.): <0.5 % ID/g
Tissue uptake: Intestines ([2]; 1 h p.i.): <0.5 % ID/g
Tissue uptake: Kidneys ([2]; 1 h p.i.): 8.4 ± 3.5 % ID/g
Tissue uptake: Liver ([2]; 1 h p.i.): <0.5 % ID/g
Tissue uptake: Lung ([2]; 1 h p.i.): <0.5 % ID/g
Tissue uptake: Muscle ([2]; 1 h p.i.): <0.5 % ID/g
Tissue uptake: Salivary glands ([2]; 1 h p.i.): <0.5 % ID/g
Tissue uptake: Spleen ([2]; 1 h p.i.): <0.5 % ID/g
Tissue uptake: Stomach ([2]; 1 h p.i.): <0.5 % ID/g
Tissue uptake: PC-3 flu tumor ([2]; 1 h p.i.): <0.5 % ID/g
Tissue uptake: PC-3 PIP tumor ([2]; 1 h p.i.): 25 ± 3 % ID/g
PC-3 PIP tumor-to-background organ ratios: Tumor-to-blood ([2]; 1 h p.i.): >51^*
PC-3 PIP tumor-to-background organ ratios: Tumor-to-liver ([2]; 1 h p.i.): >51^*
PC-3 PIP tumor-to-background organ ratios: Tumor-to-kidney ([2]; 4 h p.i.): 24 ± 3
Tissue uptake: Blood ([2]; 4 h p.i.): <0.5 % ID/g
Tissue uptake: Bone ([2]; 4 h p.i.): <0.5 % ID/g
Tissue uptake: Heart ([2]; 4 h p.i.): <0.5 % ID/g
Tissue uptake: Intestines ([2]; 4 h p.i.): <0.5 % ID/g
Tissue uptake: Kidneys ([2]; 4 h p.i.): 1.0 ± 0.2 % ID/g
Tissue uptake: Liver ([2]; 4 h p.i.): <0.5 % ID/g
Tissue uptake: Lung ([2]; 4 h p.i.): <0.5 % ID/g
Tissue uptake: Muscle ([2]; 4 h p.i.): <0.5 % ID/g
Tissue uptake: Salivary glands ([2]; 4 h p.i.): <0.5 % ID/g
Tissue uptake: Spleen ([2]; 4 h p.i.): <0.5 % ID/g
Tissue uptake: Stomach ([2]; 4 h p.i.): <0.5 % ID/g
Tissue uptake: PC-3 flu tumor ([2]; 4 h p.i.): <0.5 % ID/g
Tissue uptake: PC-3 PIP tumor ([2]; 4 h p.i.): 23 ± 3 % ID/g
PC-3 PIP tumor-to-background organ ratios: Tumor-to-blood ([2]; 4 h p.i.): >46^*
PC-3 PIP tumor-to-background organ ratios: Tumor-to-liver ([2]; 4 h p.i.): >46^*

O=C([O-])CN1CCN(CC(=O)[O-])CCN(CC(=O)NC[C@H]2CC[C@H](C(=O)N[C@@H](Cc3ccc4ccccc4c3)C(=O)NCCCC[C@H](NC(=O)N[C@@H](CCC(=O)O)C(=O)O)C(=O)O)CC2)CCN(CC(=O)[O-])CC1.[153Eu+3] [[^153Eu]Eu-PSMA-617]
PC-3 PIP tumor-to-background organ ratios: Tumor-to-kidney ([2]; 1 h p.i.): 3.3 ± 1.1
Tissue uptake: Blood ([2]; 1 h p.i.): <0.5 % ID/g
Tissue uptake: Bone ([2]; 1 h p.i.): <0.5 % ID/g
Tissue uptake: Heart ([2]; 1 h p.i.): 0.52 ± 0.42 % ID/g
Tissue uptake: Intestines ([2]; 1 h p.i.): <0.5 % ID/g
Tissue uptake: Kidneys ([2]; 1 h p.i.): 8.1 ± 3.5 % ID/g
Tissue uptake: Liver ([2]; 1 h p.i.): <0.5 % ID/g
Tissue uptake: Lung ([2]; 1 h p.i.): <0.5 % ID/g
Tissue uptake: Muscle ([2]; 1 h p.i.): <0.5 % ID/g
Tissue uptake: Salivary glands ([2]; 1 h p.i.): <0.5 % ID/g
Tissue uptake: Spleen ([2]; 1 h p.i.): 0.51 ± 0.17 % ID/g
Tissue uptake: Stomach ([2]; 1 h p.i.): <0.5 % ID/g
Tissue uptake: PC-3 flu tumor ([2]; 1 h p.i.): <0.5 % ID/g
Tissue uptake: PC-3 PIP tumor ([2]; 1 h p.i.): 24 ± 3 % ID/g
PC-3 PIP tumor-to-background organ ratios: Tumor-to-blood ([2]; 1 h p.i.): >50^*
PC-3 PIP tumor-to-background organ ratios: Tumor-to-liver ([2]; 1 h p.i.): >50^*
PC-3 PIP tumor-to-background organ ratios: Tumor-to-kidney ([2]; 4 h p.i.): 23 ± 3
Tissue uptake: Blood ([2]; 4 h p.i.): <0.5 % ID/g
Tissue uptake: Bone ([2]; 4 h p.i.): <0.5 % ID/g
Tissue uptake: Heart ([2]; 4 h p.i.): <0.5 % ID/g
Tissue uptake: Intestines ([2]; 4 h p.i.): <0.5 % ID/g
Tissue uptake: Kidneys ([2]; 4 h p.i.): 1.1 ± 0.3 % ID/g
Tissue uptake: Liver ([2]; 4 h p.i.): <0.5 % ID/g
Tissue uptake: Lung ([2]; 4 h p.i.): <0.5 % ID/g
Tissue uptake: Muscle ([2]; 4 h p.i.): <0.5 % ID/g
Tissue uptake: Salivary glands ([2]; 4 h p.i.): <0.5 % ID/g
Tissue uptake: Spleen ([2]; 4 h p.i.): <0.5 % ID/g
Tissue uptake: Stomach ([2]; 4 h p.i.): <0.5 % ID/g
Tissue uptake: PC-3 flu tumor ([2]; 4 h p.i.): <0.5 % ID/g
Tissue uptake: PC-3 PIP tumor ([2]; 4 h p.i.): 23 ± 3 % ID/g
PC-3 PIP tumor-to-background organ ratios: Tumor-to-blood ([2]; 4 h p.i.): >46^*
PC-3 PIP tumor-to-background organ ratios: Tumor-to-liver ([2]; 4 h p.i.): >46^*
